Test [1] relates to high-fat diet-fed (HFD) mice. Put plainly: Fasting plasma glycemia and insulin sensitivity in high-fat diet-fed (HFD) mice. The test is classed as in vivo. How it is done: Six-week-old male C57BI/6 mice were fed a high-fat diet or chow diet for 3 months. Then, HFD mice were treated orally with vehicle (Control HFD) or compound of formula (I) at 60 mg/kg twice daily for 4 weeks. Chow fed mice were treated orally with vehicle alone (Control CD). At completion of this treatment period, mice were fasted for 6 hours and blood glucose levels were assessed with a blood glucosemeter from blood samples collected from the tip of the tail vein.

The test system of a further test is HFD hamster. Put plainly: Circulating lipids (FPLC lipoprotein profile) and insulin sensitivity in HFD hamster. The test is classed as in vivo. How it is done:
Hamsters were fed a control chow diet with normal drinking water or high fat diet with 10% fructose drinking water over 30 days. After 16 days of high-fat diet, two groups of hamsters were treated orally with either vehicle (control HFD) or Compound of formula (I) twice daily for 14 days. Hamsters fed the chow diet were also treated orally for 14 days with vehicle BID (control CD). After the treatment period, hamsters were overnight fasted, blood samples were obtained from the retroorbital plexus. Plasma was immediately isolated by centrifugation and for each group, a 400 µL pool of plasma was made from the individual plasma samples. Lipoproteins were separated by fast performance liquid chromatography (FPLC). FPLC fractions were monitored for cholesterol levels.

Test [2] concerns HFD mice. Put plainly: Hepatic lipids in HFD mice. The settings on record: orally 60 mg/Kg twice daily for 40 days, to near control chow values. The test is classed as in vivo. The procedure:
Six-week-old male C57BI/6 mice were fed a high-fat diet or chow diet for 3 months. Then, HFD mice were treated orally with vehicle (Control HFD) or compound of formula (I) at 60 mg/Kg twice daily for 40 days. Chow fed mice were treated orally with vehicle alone (Control CD). At completion of this treatment period, mice were sacrificed and liver collected for determination of triglycerides, cholesterol and free fatty acids (FFA) content. Commercial kits were used to measure the levels of hepatic cholesterol (cholesterol RTU, Biomerieux), triglyceride (TG) (triglyceride PAP 150, Biomerieux), and fatty acid (NEFA-HR (2), Wako Chemicals) levels from liver homogenate. Results were then normalized to the weight of the sample.

For test [3], the system named is β2-containing heterotrimers of human recombinant AMPK. Put plainly: AMPK activation assay (phosphorylation of ACC1/1-120 at ser79, AlphaScreen), β2-containing heterotrimers. The test is classed as biochemical. Particulars: two β2-containing heterotrimers; 100 µM ATP, room temperature, 60 minutes. How it is done:
(§1) The compound of formula (I) was assayed in vitro to determine its EC50 against four different AMPK heterotrimers (two containing the β1 subunit and two containing the β2 subunit). AMPK activity was measured by the phosphorylation of the amino-terminal fragment of human acetyl CoA carboxylase-type 1, amino acids 1-120 (ACC1/1-120), at ser79. The fragment was expressed as a biotinylated fusion protein in E.coli. Human rAMPK genes were expressed in insect cells using baculovirus vectors or in the monkey COS7 cell expression systems. The compound was tested in triplicate at each of the following concentrations (µM): 45, 15, 5, 1.67, 0.56, 0.185, 0.06, 0.02 and 0.00685. A positive control comprising AMP (100 uM), and a negative control without enzyme, were used. The enzyme assay was conducted in a 5 µl reaction mixture containing compound of formula (I) at the indicated concentrations in 80 mM HEPES, pH7.0, 160 mM NaCl, 2.5 mM MgCl2, 1mM DTT, 0.05% Tween-20, 100 µM ATP with AMPK at 0.08 ng/µl and ACC1/1-120 at 0.004 ng/µl. […] The reaction mixture was further incubated overnight at RT and analyzed on a Perkin EImer Fusion-Alpha microplate analyzer. The AlphaScreen readout for this assay is based on an excitation with laser-stimulated visible light at 680 nm and emission at 520-620 nm.

The test system of test [4] is HFD mice. Put plainly: Hepatic glucose production in HFD mice (hyperinsulinemic-euglycemic clamp). The settings on record: for hepatic glucose production: orally 60 mg/kg twice daily for 40 days, under insulin stimulated states, p < 0.001 vs Control HFD, 60 mg/kg. The test is classed as in vivo. The procedure: Six-week-old male C57BI/6 mice were fed a high-fat diet or chow diet for 3 months. Then, HFD mice were treated orally with vehicle (Control HFD) or compound of formula (I) at 60 mg/kg twice daily for 40 days. Chow fed mice were treated orally with vehicle alone (Control CD). Hepatic glucose production was assessed during a hyperinsulinemic-euglycemic clamp using a 12 mU/kg/min insulin infusion rate. Hyperinsulinemic-euglycemic clamps were performed in chronically cannulated awake free moving mice. Before the start of the clamp procedure mice were fasted for 6 hours. ^3H-glucose alone was then infused for 210 minutes to assess the basal whole body glucose turnover (= hepatic glucose output). The basal procedure started with D-[3-3H]glucose, which was infused (2µL/min, 30µCi/min/kg) for 90 minutes (time -60 to time 30 minutes). An euglycemic hyperinsulinemic 1 step insulin clamp was then performed from 30 minutes to 150 minutes, with a 12mU/kg/min insulin infusion. Glucose (16.5%) infusion rate was adjusted until steady-state blood glucose (120 mg/dL, ± 10 mg/dL) was achieved. Calculations for glucose turnover measurements were made from parameters obtained during the last 60 min of the infusions in steady-state condition, Briefly, the D-[3-3H]glucose-specific activity was calculated by dividing the D-[3-3H]glucose enrichment by the plasma glucose concentration. The whole-body glucose turnover rate was calculated by dividing the rate of D-[3-3H]glucose by the D-[3-3H]glucose plasma-specific activity. For each mouse, the mean values were calculated and averaged with values from mice of the same group.

The subject of test [5] is β1-containing heterotrimers of human recombinant AMPK. Put plainly: AMPK activation assay (phosphorylation of ACC1/1-120 at ser79, AlphaScreen), β1-containing heterotrimers. Particulars: two β1-containing heterotrimers; 100 µM ATP, room temperature, 60 minutes. The format is biochemical. How it is done: as §1
A general note: Bead proximity is the source of the signal in Alpha formats.

Setting [6] is: HFD hamsters, orally twice daily for 14 days, FPLC of pooled plasma.

SMILES strings stand for the structures.

For orientation: EC50 means the concentration that produces a half-maximal response. In the case of `O=C(O)c1c[nH]c2ccc(-c3ccc(-c4c(O)cccc4O)cc3)cc12` [compound of formula (I), 5-(2',6'-dihydroxy-biphenyl-4-yl)-1H-indole-3-carboxylic acid], the “decrease of fasting plasma glycemia” value in test [1] (orally 60 mg/kg twice a day) was “at least 17%”. Besides, the blood glucose entry in test [1] (orally 60 mg/kg twice daily for 4 weeks, fasted for 6 hours, p <0.05 vs Control HFD) was “significantly decreased”. Moreover, the “HOMA-IR decrease (insulin sensitivity)” value was found to be 43% in test [1] (results not shown) and 37% with HFD hamster (HFD hamster, results not shown). The “HDL total cholesterol levels” value in the test with HFD hamster (setting [6]) was “increased”. Moreover, the “LDL total cholesterol levels” value in the test with HFD hamster (setting [6]) is listed as “reduced”. Besides, in the test on HFD hamster (setting [6]), the “VLDL total cholesterol levels” value is “reduced”. In addition, in the test on HFD mice [2], the liver lipids content entry is on record as “reduced”. For the same molecule, the EC50 is less than 5000 nM in test [3] and less than 500 nM in test [5]. The “decrease of hepatic glucose production” value with HFD mice [4] (orally 60 mg/kg twice a day, basal state) was “at least 34%”. For the same molecule, the hepatic glucose production result was “normalized” with HFD mice [4] and “blunted” in the test on HFD mice [4] (listed as Compound of formula (I)).

The record behind these values is patent EP2769974A1, “Novel AMPK activator” (Debiopharm S.A., priority 2013, dated 2014).
